Test results taken from patent US20220144815A1, “1,3,4-OXADIAZOLES AND THEIR DERIVATIVES AS NEW ANTIFUNGAL AGENTS” (Bayer Aktiengesellschaft, priority 2018, published 2022).

assay: Log P by HPLC on reversed phase columns, method [a] (EEC directive 79/831 Annex V.A8); assay type: physicochemical; details: log P determined according to method [a] (HPLC on reversed phase columns)
Procedure: Measurement of Log P values as provided herein was performed according to EEC directive 79/831 Annex V.A8 by HPLC (High Performance Liquid Chromatography) on reversed phase columns with the following methods: • ^[a] Log P value is determined by measurement of LC-UV, in an acidic range, with 0.1% formic acid in water and acetonitrile as eluent (linear gradient from 10% acetonitrile to 95% acetonitrile). • ^[b] Log P value is determined by measurement of LC-UV, in a neutral range, with 0.001 molar ammonium acetate solution in water and acetonitrile as eluent (linear gradient from 10% acetonitrile to 95% acetonitrile). • ^[c] Log P value is determined by measurement of LC-UV, in an acidic range, with 0.1% phosphoric acid and acetonitrile as eluent (linear gradient from 10% acetonitrile to 95% acetonitrile). If more than one Log P value is available within the same method, all the values are given and separated by “+”. Calibration was done with straight-chain alkan2-ones (with 3 to 16 carbon atoms) with known Log P values (measurement of Log P values using retention times with linear interpolation between successive alkanones). Lambda-max-values were determined using UV-spectra from 200 nm to 400 nm and the peak values of the chromatographic signals In table 1, the log P values were determined according to method [^a]. In table 2, the log P values were determined according to method [^a].

Row | Structure (SMILES) | logP
1 | Fc1cccc(Nc2ncc(-c3nnc(C(F)F)o3)cn2)c1 [Example I-094] | 2.77
2 | O=C(Nc1ccc(-c2nnc(C(F)F)o2)cc1)C(F)F [Example I-012] | 2.01
3 | Fc1ccccc1C1(Nc2ccc(-c3nnc(C(F)F)o3)cc2)CC1 [Example I-025] | 3.57
4 | Fc1ccccc1Nc1ccc(-c2nnc(C(F)F)o2)cc1 [Example I-017] | 3.19
5 | FC(F)c1nnc(-c2ccc(C(F)(F)F)nc2)o1 [Example I-037] | 2.39
6 | CCn1nccc1-c1ncc(-c2nnc(C(F)F)o2)cn1 [Example I-078] | 2.18
7 | FC(F)c1nnc(-c2cnc(-c3ccccc3Cl)nc2)o1 [Example I-099] | 3.32
8 | FC(F)c1nnc(-c2cnc(NCC3CC3)nc2)o1 [Example I-067] | 2.16
9 | FC(F)c1nnc(-c2cnc(Nc3ccccc3)nc2)o1 [Example I-076] | 2.54
10 | FC(F)c1nnc(-c2cnc(Sc3ccccc3)nc2)o1 [Example I-092] | 3.04
11 | FC(F)c1nnc(-c2cnc(OCc3ccccc3)nc2)o1 [Example I-090] | 2.75
12 | CNc1ncc(-c2nnc(C(F)F)o2)cn1 [Example I-060] | 1.23
13 | Fc1ccc(Nc2ncc(-c3nnc(C(F)F)o3)cn2)cc1 [Example I-095] | 2.64
14 | FC(F)c1nnc(-c2cnc(-c3ccsc3)nc2)o1 [Example I-072] | 2.64
15 | Cc1ccc(NC(=O)c2ccc(-c3nnc(C(F)F)o3)cn2)cc1 [Example I-048] | 3.14
16 | Fc1ccccc1Nc1ccc(-c2nnc(C(F)(F)Cl)o2)cn1 [Example I-053] | 3.54
17 | O=C(O)c1ccc(-c2nnc(C(F)F)o2)cn1 [Example I-032] | 0.83
18 | FC(F)c1nnc(-c2ccc(Cn3ccnc3)cc2)o1 [Example I-010] | 0.60
19 | O=C(Nc1ccccc1)Nc1ccc(-c2nnc(C(F)F)o2)cn1 [Example I-051] | 2.57
20 | COC(=O)Nc1ccc(-c2nnc(C(F)F)o2)cn1 [Example I-038] | 1.66
21 | C#CCNC(=O)c1ccc(-c2nnc(C(F)F)o2)cn1 [Example I-039] | 1.68
22 | FC(F)c1nnc(-c2cnc(Cc3ccccc3)nc2)o1 [Example I-075] | 2.49
23 | CNC(=O)c1ccc(-c2nnc(C(F)F)o2)cn1 [Example I-033] | 1.32
24 | FC(F)c1nnc(-c2ccc(Br)cc2)o1 [Example I-009] | 2.89

same assay, conditions: reversed phase HPLC column; Method A: LC-UV, acidic range, 0.1% formic acid in water and acetonitrile; read-out: Log P

Row | Structure (SMILES) | chromatographic logP
25 | COC(=O)c1ccc(-c2nnc(C(F)(F)F)s2)cc1 [I.011, methyl 4-[5-(trifluoromethyl)-1,3,4-thiadiazol-2-yl]benzoate] | 3.23
26 | NNC(=O)c1cnc(NC2(c3ccccc3)CCC2)nc1 [2-[(1-phenylcyclobutyl)amino]pyrimidine-5-carbohydrazide] | 1.63

same assay, conditions: reversed phase HPLC column; log P determined according to method [a] (HPLC on reversed phase columns); read-out: logP

Row | Structure (SMILES) | chromatographic logP
27 | Fc1cccc(F)c1C1(Oc2ncc(-c3nnc(C(F)F)o3)cn2)CC1 [I.167, 5-[5-(difluoromethyl)-1,3,4-oxadiazol-2-yl]-2-{[1-(2,6-difluorophenyl)cyclopropyl]oxy}pyrimidine] | 3.25
28 | FC(F)c1nnc(-c2cnc(-c3cncc(Cl)c3)nc2)o1 [I.103, 2-(5-chloropyridin-3-yl)-5-[5-(difluoromethyl)-1,3,4-oxadiazol-2-yl]pyrimidine] | 2.59
29 | FC(F)c1nnc(-c2cnc(N3Cc4ccccc4C3)nc2)o1 [I.106, 2-{5-[5-(difluoromethyl)-1,3,4-oxadiazol-2-yl]pyrimidin-2-yl}isoindoline] | 3.1
30 | FC(F)c1nnc(-c2cnc(NCc3ccccc3Cl)nc2)o1 [I.128, N-(2-chlorobenzyl)-5-[5-(difluoromethyl)-1,3,4-oxadiazol-2-yl]pyrimidin-2-amine] | 2.95
31 | FC(F)c1nnc(-c2cnc(Nc3ccccc3Cl)nc2)o1 [I.114, N-(2-chlorophenyl)-5-[5-(difluoromethyl)-1,3,4-oxadiazol-2-yl]pyrimidin-2-amine] | 2.92

same assay, conditions: reversed phase HPLC column; method [a], HPLC on reversed phase columns; read-out: logP

Row | Structure (SMILES) | chromatographic logP
32 | CCC(Nc1ncc(-c2nnc(C(F)F)o2)cn1)c1ccc(Cl)cc1 (racemic) [I.230, N-[(1RS)-1-(4-chlorophenyl)propyl]-5-[5-(difluoromethyl)-1,3,4-oxadiazol-2-yl]pyrimidin-2-amine] | 3.58
33 | FC(F)c1nnc(-c2cnc(NC3(c4cccc(OC(F)(F)F)c4)CC3)nc2)o1 [I.262, 5-[5-(difluoromethyl)-1,3,4-oxadiazol-2-yl]-N-{1-[3-(trifluoromethoxy)phenyl]cyclopropyl}pyrimidin-2-amine] | 3.37
34 | CC(Cc1ccc(F)cc1)Nc1ncc(-c2nnc(C(F)F)o2)cn1 (racemic) [I.210, 5-[5-(difluoromethyl)-1,3,4-oxadiazol-2-yl]-N-[(2RS)-1-(4-fluorophenyl)propan-2-yl]pyrimidin-2-amine] | 3.12
35 | Cc1ccc(C(C)(C)Nc2ncc(-c3nnc(C(F)F)o3)cn2)cc1 [I.204, 5-[5-(difluoromethyl)-1,3,4-oxadiazol-2-yl]-N-[2-(4-methylphenyl)propan-2-yl]pyrimidin-2-amine] | 3.46
36 | COc1ccccc1C(C)Nc1ncc(-c2nnc(C(F)F)o2)cn1 (racemic) [I.209, 5-[5-(difluoromethyl)-1,3,4-oxadiazol-2-yl]-N-[(1RS)-1-(2-methoxyphenyl)ethyl]pyrimidin-2-amine] | 2.95
37 | FC(F)c1nnc(-c2cnc(NC(Cc3ccccc3)c3ccccc3)nc2)o1 (racemic) [I.245, 5-[5-(difluoromethyl)-1,3,4-oxadiazol-2-yl]-N-[(1RS)-1,2-diphenylethyl]pyrimidin-2-amine] | 3.68
38 | FC(F)Oc1cccc(C2(Nc3ncc(-c4nnc(C(F)F)o4)cn3)CC2)c1 [I.246, N-{1-[3-(difluoromethoxy)phenyl]cyclopropyl}-5-[5-(difluoromethyl)-1,3,4-oxadiazol-2-yl]pyrimidin-2-amine] | 2.91
39 | O=C(N(c1ncc(-c2nnc(C(F)F)o2)cn1)C1(c2ccccc2F)CC1)C(F)(F)F [I.267, N-{5-[5-(difluoromethyl)-1,3,4-oxadiazol-2-yl]pyrimidin-2-yl}-2,2,2-trifluoro-N-[1-(2-fluorophenyl)cyclopropyl]acetamide] | 3.91
40 | CC(Nc1ncc(-c2nnc(C(F)F)o2)cn1)c1cccs1 (racemic) [I.192, 5-[5-(difluoromethyl)-1,3,4-oxadiazol-2-yl]-N-[(1RS)-1-(2-thienyl)ethyl]pyrimidin-2-amine] | 2.7
41 | CC(Nc1ncc(-c2nnc(C(F)F)o2)cn1)c1cccc(C(F)(F)F)c1 (racemic) [I.239, 5-[5-(difluoromethyl)-1,3,4-oxadiazol-2-yl]-N-{(1RS)-1-[3-(trifluoromethyl)phenyl]ethyl}pyrimidin-2-amine] | 3.37
42 | FC(F)c1nnc(-c2cnc(NC3(c4cccc(Oc5ccccc5)c4)CC3)nc2)o1 [I.265, 5-[5-(difluoromethyl)-1,3,4-oxadiazol-2-yl]-N-[1-(3-phenoxyphenyl)cyclopropyl]pyrimidin-2-amine] | 3.62
43 | Cc1ccnc(C2(Nc3ncc(-c4nnc(C(F)F)o4)cn3)CC2)c1 [I.203, 5-[5-(difluoromethyl)-1,3,4-oxadiazol-2-yl]-N-[1-(4-methylpyridin-2-yl)cyclopropyl]pyrimidin-2-amine] | 0.93
44 | Cc1cccc(C)c1C1(Nc2ncc(-c3nnc(C(F)F)o3)cn2)CC1 [I.216, 5-[5-(difluoromethyl)-1,3,4-oxadiazol-2-yl]-N-[1-(2,6-dimethylphenyl)cyclopropyl]pyrimidin-2-amine] | 3.8
45 | Fc1ccc([C@H](Nc2ncc(-c3nnc(C(F)F)o3)cn2)C2CCCC2)cc1 [I.244, N—[(R)-cyclopentyl(4-fluorophenyl)methyl]-5-[5-(difluoromethyl)-1,3,4-oxadiazol-2-yl]pyrimidin-2-amine] | 4.05
46 | COc1ccc(C2(Nc3ncc(-c4nnc(C(F)F)o4)cn3)CC2)cc1OC [I.243, 5-[5-(difluoromethyl)-1,3,4-oxadiazol-2-yl]-N-[1-(3,4-dimethoxyphenyl)cyclopropyl]pyrimidin-2-amine] | 2.39
47 | CC(C)(Cc1ccc(F)cc1)Nc1ncc(-c2nnc(C(F)F)o2)cn1 [I.223, 5-[5-(difluoromethyl)-1,3,4-oxadiazol-2-yl]-N-[1-(4-fluorophenyl)-2-methylpropan-2-yl]pyrimidin-2-amine] | 3.79
48 | CC(Nc1ncc(-c2nnc(C(F)F)o2)cn1)c1ccccn1 (racemic) [I.189, 5-[5-(difluoromethyl)-1,3,4-oxadiazol-2-yl]-N-[(1RS)-1-(pyridin-2-yl)ethyl]pyrimidin-2-amine] | 1
49 | CCC(Nc1ncc(-c2nnc(C(F)F)o2)cn1)c1ccccc1Br (racemic) [I.260, N-[(1RS)-1-(2-bromophenyl)propyl]-5-[5-(difluoromethyl)-1,3,4-oxadiazol-2-yl]pyrimidin-2-amine] | 3.64
50 | FC(F)c1nnc(-c2cnc(NC3(c4cc(Cl)ccn4)CC3)nc2)o1 [I.228, N-[1-(4-chloropyridin-2-yl)cyclopropyl]-5-[5-(difluoromethyl)-1,3,4-oxadiazol-2-yl]pyrimidin-2-amine] | 2.31
